Here are results for 34 molecules from US20260285857A1, “BICYCLIC AND HETEROCYCLIC AMIDE COMPOUNDS” (priority 2024, published 2026).

For this assay, the system named is immunoglobulin light chain protein WIL-FL T46L. Description: Differential scanning fluorimetry (thermal shift) assay. Format: binding. The conditions noted are these: Table B; temperature shift [Tm]compound-[Tm]vehicle; recombinant WIL-FL T46L. A general note: In DSF a fluorescence change marks the thermal transition of the protein.
As for `Cc1n[nH]c(C2C3(CNC(=O)C4CC[C@H](C(=O)O)O4)COC2(c2nc4c(C)cc(N5CC[C@](C)(c6ccccc6)C5)cn4n2)C3)n1` (stereo partly shown) [Compound 590], the DSF entry was “***** (>2.5° C.=*****)”.

For the molecule `Cc1n[nH]c(C23CC(NC(=O)c4nc5c(C)cc(N6CC[C@](C)(c7ccccc7)C6)cn5n4)(CO2)C3)n1` [Compound 591, (R)-8-methyl-N-(1-(3-methyl-1H-1,2,4-triazol-5-yl)-2-oxabicyclo[2.1.1]hexan-4-yl)-6-(3-methyl-3-phenylpyrrolidin-1-yl)-[1,2,4]triazolo[1,5-a]pyridine-2-carboxamide], the DSF result is given as “***** (>2.5° C.=*****)”.

Consider `Cc1cc(N2CC[C@](C)(c3ccccc3)C2)cn2nc(C(=O)N3CC4CC(C(=O)O)CC4C3)nc12` (stereo partly shown) [Compound 592], for which the DSF entry is “***** (>2.5° C.=*****)”.

In the case of `Cc1cc(N2CC[C@@](C)(n3ccc(C(F)(F)F)n3)C2)cn2nc(C(=O)NC3COC4(COC4)C3)nc12` (stereo partly shown) [Compound 593], the DSF entry is “***** (>2.5° C.=*****)”.

As for `Cc1cc(N2CC[C@](C)(c3ccccc3)C2)cn2nc(C(=O)N3CCC4(CCC(C(=O)O)O4)C3)nc12` (stereo partly shown) [Compound 594], the DSF entry is given as “***** (>2.5° C.=*****)”.

`Cc1cc(N2CC[C@](C)(c3ccccc3)C2)cn2nc(C(=O)N3C[C@@H]4[C@@H](C(=O)O)CO[C@@H]4C3)nc12` [Compound 595]: the DSF entry is “***** (>2.5° C.=*****)”.

As for `Cc1cc(N2CC[C@](C)(c3ccccc3)C2)cn2nc(C(=O)NC3CC4(C3)CN(C(=O)C3CCC(C(=O)O)O3)C4)nc12` (stereo partly drawn) [Compound 596, 5-[6-[[8-methyl-6-[(3R)-3-methyl-3-phenyl-pyrrolidin-1-yl]-[1,2,4]triazolo[1,5-a]pyridine-2-carbonyl]amino]-2-azaspiro[3.3]heptane-2-carbonyl]tetrahydrofuran-2-carboxylic acid], the DSF result is “***** (>2.5° C.=*****)”.

For `CNC(=O)C12CC(NC(=O)c3nc4c(C)cc(N5CC[C@](C)(c6ccccc6)C5)cn4n3)(CO1)C2` [Compound 597], the DSF result is reported as “***** (>2.5° C.=*****)”.

Regarding `Cc1cc(N2CC[C@](C)(c3ccccc3)C2)cn2nc(C(=O)N3CCC4(COCC(C(=O)O)O4)C3)nc12` (stereo partly shown) [Compound 598], the DSF entry is “***** (>2.5° C.=*****)”.

`Cc1cc(N2CC[C@](C)(c3ccccc3)C2)cn2nc(C(=O)NC3CC4(C3)CC(N3CCC(C(=O)O)CC3)C4)nc12` (stereo partly shown) [Compound 599]: the DSF entry is “***** (>2.5° C.=*****)”.

For the molecule `Cc1cc(N2CC[C@](C)(c3ccccc3)C2)cn2nc(C(=O)NC3CC4(C3)CC(N3CC(C(=O)O)C3)C4)nc12` (stereo partly shown) [Compound 600], the DSF result is reported as “***** (>2.5° C.=*****)”.

On to `Cc1cc(N2CC[C@](C)(c3ccccc3)C2)cn2nc(C(=O)NC3CC4(C3)CN(C(=O)CC(C)(C)C(=O)O)C4)nc12` [Compound 601], for which the DSF result was “***** (>2.5° C.=*****)”.

Turning to `Cc1cc(N2CC[C@](C)(c3ccccc3)C2)cn2nc(C(=O)NC34CCC(CO)(CC3)OC4)nc12` [Compound 602], the DSF result is “***** (>2.5° C.=*****)”.

With `Cc1cc(N2CC[C@](C)(c3ccccc3)C2)cn2nc(C(=O)N3CC(C(=O)O)C4(COC4)C3)nc12` (stereo partly shown) [Compound 603], the DSF entry is reported as “***** (>2.5° C.=*****)”.

With `Cc1cc(N2CC[C@](C)(c3ccccc3)C2)cn2nc(C(=O)N3CC4COCC4(C(=O)O)C3)nc12` (stereo partly shown) [Compound 604], the DSF entry is reported as “***** (>2.5° C.=*****)”.

Take `Cc1cc(N2CC[C@](C)(c3ccccc3)C2)cn2nc(C(=O)N3CCC4(CCCC(C(=O)O)C4)C3)nc12` (stereo partly shown) [Compound 606]: the DSF entry is recorded as “***** (>2.5° C.=*****)”.

On to `Cc1cc(N2CC[C@](C)(c3ccccc3)C2)cn2nc(C(=O)NC3CCN(c4cccc(S(C)(=N)=O)n4)CC3)nc12` (stereo partly drawn) [Compound 608, 8-methyl-6-[(3R)-3-methyl-3-phenyl-pyrrolidin-1-yl]-N-[1-[6-(methylsulfonimidoyl)-2-pyridyl]-4-piperidyl]-[1,2,4]triazolo[1,5-a]pyridine-2-carboxamide], for which the DSF result is on record as “***** (>2.5° C.=*****)”.

For `Cc1cc(N2CC[C@](C)(c3ccccc3)C2)cn2nc(C(=O)N3CCC4(CCN(c5ccc(C(N)=O)c(C(=O)O)n5)C4)C3)nc12` (stereo partly shown) [Compound 610], the DSF entry was “***** (>2.5° C.=*****)”.

As for `Cc1cc(N2CC[C@](C)(c3ccccc3)C2)cn2nc(C(=O)N3CCC4C3CCN4c3cccc(C(=O)O)n3)nc12` (stereo partly shown) [Compound 611], the DSF entry was “***** (>2.5° C.=*****)”.

In the case of `COC1(CNC(=O)c2nc3c(C)cc(N4CC[C@](C)(c5ccccc5)C4)cn3n2)CN(c2cccc(C(=O)O)n2)C1` [Compound 612], the DSF result is reported as “***** (>2.5° C.=*****)”.

For the molecule `Cc1cc(N2CC[C@](C)(c3ccccc3)C2)cn2nc(C(=O)NCC3(O)CN(c4cccc(C(=O)O)n4)C3)nc12` [Compound 613], the DSF result is “***** (>2.5° C.=*****)”.

For the molecule `Cc1cc(N2CC[C@](C)(c3ccccc3)C2)cn2nc(C(=O)N3CCC34CN(c3cccc(C(=O)O)n3)C4)nc12` [Compound 615], the DSF result was “**** (>1.5-2.5° C.=****)”.

As to `Cc1cc(N2CC[C@](C)(c3ccccc3)C2)cn2nc(C(=O)N3CCC(Nc4cccc(C(=O)O)n4)C3)nc12` (stereo partly shown) [Compound 616], the DSF entry was “***** (>2.5° C.=*****)”.

Regarding `Cc1cc(N2CC[C@](C)(c3ccccc3)C2)cn2nc(C(=O)NC3(C)CCCN(c4cccc(C(=O)O)n4)C3)nc12` (stereo partly shown) [Compound 617], the DSF result is given as “***** (>2.5° C.=*****)”.

For the molecule `C[C@]1(c2ccccc2)CCN(c2cc(CO)c3nc(C(=O)N4CCC5(C4)CN(c4cccc(C(=O)O)n4)C5)nn3c2)C1` [Compound 618], the DSF result was “***** (>2.5° C.=*****)”.

On to `COc1cc(N2CCC3(CCN(C(=O)c4nc5c(C)cc(N6CC[C@](C)(c7ccccc7)C6)cn5n4)C3)C2)cc(C(=O)O)n1` (stereo partly shown) [Compound 619], for which the DSF entry is on record as “***** (>2.5° C.=*****)”.

Take `Cc1cc(N2CC[C@](C)(c3ccccc3)C2)cn2nc(C(=O)NC3CCC4CCC3N4c3cccc(C(=O)O)n3)nc12` (stereo partly shown) [Compound 620]: the DSF entry is recorded as “***** (>2.5° C.=*****)”.

In the case of `Cc1cc(N2CC[C@](C)(c3ccccc3)C2)cn2nc(C(=O)N3CCC4(CCN4c4ccnc(C(=O)O)c4)C3)nc12` (stereo partly shown) [Compound 621], the DSF entry is “***** (>2.5° C.=*****)”.

For the molecule `Cc1cc(N2CC[C@](C)(c3ccccc3)C2)cn2nc(C(=O)N3CC4C(C3)C4Nc3cccc(C(=O)O)n3)nc12` (stereo partly shown) [Compound 622], the DSF result is “***** (>2.5° C.=*****)”.

For the molecule `Cc1cc(N2CC[C@](C)(c3ccccc3)C2)cn2nc(C(=O)N[C@H]3C[C@]4(CCN(c5cccc(C(=O)O)n5)C4)C3)nc12` [Compound 623], the DSF result was “***** (>2.5° C.=*****)”.

Consider `Cc1cc(N2CC[C@](C)(c3ccccc3)C2)cn2nc(C(=O)N[C@H]3C[C@@]4(CCN(c5cccc(C(=O)O)n5)C4)C3)nc12` [Compound 624], for which the DSF entry is recorded as “***** (>2.5° C.=*****)”.

With `COc1ccc(N2CCC3(CCN(C(=O)c4nc5c(C)cc(N6CC[C@](C)(c7ccccc7)C6)cn5n4)C3)C2)nc1C(=O)O` (stereo partly shown) [Compound 625], the DSF entry is listed as “***** (>2.5° C.=*****)”.

With `Cc1cc(N2CC[C@](C)(c3ccccc3)C2)cn2nc(C(=O)N3CCC4(CCN(c5cc(C(=O)O)cnn5)C4)C3)nc12` (stereo partly shown) [Compound 626], the DSF entry is “***** (>2.5° C.=*****)”.

For `Cc1ccc(N2CCC3(CCN(C(=O)c4nc5c(C)cc(N6CC[C@](C)(c7ccccc7)C6)cn5n4)C3)C2)nc1C(=O)O` (stereo partly shown) [Compound 627], the DSF result is “***** (>2.5° C.=*****)”.
